According to article PMC2880318 (Immunome Research, 2010):
Where a SMILES comes first, the peptide text is derived from it.

Molecular target: purified HLA-DRB1*0101 (Homo sapiens, UniProt P01903+P01911, A100R/D57E/F55L/F60I/F76Y/I96L/L162R/M171V/P40L/Q125E/R42F/V115G/Y59C)
Experiment: biochemical
Assay type: binding

Row | Structure (SMILES) | IC50
1 | CC(C)[C@H](NC(=O)[C@H](C)NC(=O)[C@H](Cc1c[nH]c2ccccc12)NC(=O)[C@H](Cc1ccccc1)NC(=O)[C@H](Cc1ccccc1)NC(=O)[C@H](CC(N)=O)NC(=O)[C@H](CCC(N)=O)NC(=O)[C@H](CC(N)=O)NC(=O)[C@@H](N)CC(N)=O)C(=O)N[C@@H](CCCCN)C(=O)N1CCC[C@H]1C(=O)N[C@@H](CCCCN)C(=O)N[C@H](C(=O)N[C@H](C(=O)N[C@@H](CCCNC(=N)N)C(=O)O)C(C)C)C(C)C [MACV L1711-1725] | 1.7 nM
2 | CC[C@H](C)[C@H](NC(=O)[C@H](Cc1c[nH]cn1)NC(=O)[C@H](CCCNC(=N)N)NC(=O)[C@H](Cc1c[nH]cn1)NC(=O)[C@@H](NC(=O)[C@@H]1CCCN1C(=O)[C@H](Cc1ccccc1)NC(=O)CNC(=O)[C@@H](NC(=O)[C@H](CC(C)C)NC(=O)[C@H](Cc1c[nH]cn1)NC(=O)[C@H](CC(C)C)NC(=O)[C@@H](N)Cc1ccccc1)C(C)C)[C@@H](C)O)C(=O)N[C@@H](CCCNC(=N)N)C(=O)NCC(=O)O [SABV GPC441-455] (H-FLHLVGFPTHRHIRG-OH) | 0.09 nM
3 | CC[C@H](C)[C@H](NC(=O)[C@H](CC(C)C)NC(=O)[C@H](CCCCN)NC(=O)[C@@H](NC(=O)[C@H](C)NC(=O)[C@H](CCC(=O)O)NC(=O)[C@H](CC(C)C)NC(=O)[C@@H](NC(=O)[C@H](CC(=O)O)NC(=O)[C@H](CC(C)C)NC(=O)[C@@H](NC(=O)[C@H](CCCNC(=N)N)NC(=O)[C@@H](N)CC(=O)O)C(C)C)[C@@H](C)CC)C(C)C)C(=O)N[C@@H](CCCNC(=N)N)C(=O)N[C@@H](CCCCN)C(=O)O [MACV L391-405] (H-DRVLDILEAVKLIRK-OH) | 0.48 nM
